*1 amine or outer side, *2 acyl side, *3 side chain or, on linkers, in order; H or OH if unused. Where a SMILES comes first, the peptide text is derived from it. Bridges are numbered along the chain shown (N, C = ends). Side-chain parts run from the residue outwards. The star is where a group is joined. C20 diacid = O=C(O)CCCCCCCCCCCCCCCCCCC(=O)*; C18 diacid = O=C(O)CCCCCCCCCCCCCCCCC(=O)*; γGlu = O=C(O)[C@H](CCC(=O)[*:2])N[*:1]
Biological target: T1, Amylin 3(a) receptor (human calcitonin receptor (CTa) and RAMP-3) (Homo sapiens, UniProt O60896+P30988)
T1 construct: expressed in transfected cells; host or cells: BHK570 cells, stably transfected with a CRE-luciferase reporter
T1 sequence (O60896 24-148): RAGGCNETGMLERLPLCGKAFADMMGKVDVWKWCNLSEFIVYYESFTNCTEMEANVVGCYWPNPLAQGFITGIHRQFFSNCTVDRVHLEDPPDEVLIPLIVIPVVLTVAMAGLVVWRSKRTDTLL
T1 sequence (P30988 25-474): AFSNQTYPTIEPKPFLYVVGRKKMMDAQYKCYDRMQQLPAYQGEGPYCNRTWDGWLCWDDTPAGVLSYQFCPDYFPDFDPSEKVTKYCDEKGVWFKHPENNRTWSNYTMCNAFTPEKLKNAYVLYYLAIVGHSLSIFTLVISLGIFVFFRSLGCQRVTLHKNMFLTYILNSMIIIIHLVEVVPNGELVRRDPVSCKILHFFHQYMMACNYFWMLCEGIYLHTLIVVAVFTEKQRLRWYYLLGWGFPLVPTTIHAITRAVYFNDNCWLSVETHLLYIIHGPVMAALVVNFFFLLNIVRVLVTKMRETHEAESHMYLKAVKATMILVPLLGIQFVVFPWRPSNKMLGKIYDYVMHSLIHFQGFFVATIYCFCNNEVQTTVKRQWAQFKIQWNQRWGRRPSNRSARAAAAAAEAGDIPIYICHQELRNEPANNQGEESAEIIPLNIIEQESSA
Assay: Luciferase assay (III), BHK Amylin 3(a)//CRE-luc cells
Assay type: cell-based
Conditions: BHK cells with Amylin 3(a) receptor and CRE luciferase reporter, 4 hours incubation; read-out: Potency Luciferase
Description: It has previously been published (Poyner D R et al 2002, Pharmacological Reviews 54(2) 233-246) that activation of Amylin receptors (coexpression of Calcitonin receptor and receptor activity modifying peptides RAMPs) by Amylin leads to an increase in the intracellular concentration of cAMP. Consequently, transcription is activated at promoters containing multiple copies of the cAMP response element (CRE). It is thus possible to measure Amylin activity by use of a CRE luciferase reporter gene introduced into BHK cells also expressing an Amylin receptor.
2. Construction of an Amylin 3(a)/CRE-luc Cell Line
A BHK570 cell line stably transfected with the human calcitonin receptor (CTa) and a CRE-responsive luciferase reportergene. The cell line was further transfected with RAMP-3, using standard methods. This turns the Calcitonin receptor into an Amylin 3(a) receptor. Methotrexate, Neomycin, and Hygromycin are selection markers for luciferase, the Calcitonin receptor, and RAMP-3, respectively.
3. Amylin Luciferase Assay
To perform activity assays, BHK Amylin 3(a)//CRE-luc cells were seeded in white 96 well culture plates at a density of about 20,000 cells/well. The cells were in 100 μl growth medium (DMEM with 10% FBS, 1% Pen/Strep, 1 mM Na-pyruvate, 250 nM Methotrexate, 500 μg/ml Neomycin, and 400 μg/ml Hygromycin). After incubation overnight at 37° C. and 5% CO2, the growth medium was replaced by 50 μl/well assay medium (DMEM (without phenol red), Glumamax™, 10% FBS, and 10 mM Hepes, pH 7,4). Further, 50 μl/well of standard or sample in assay buffer were added. After 4 hours incubation at 37° C. and 5% CO2, the assay medium with standard or sample were removed and replaced by 100 μl/well PBS. Further, 100 μl/well LucLite™ was added. The plates were sealed and incubated at room temperature for 30 minutes. Finally, luminescence was measured on a TopCounter (Packard) in SPC (single photon counting) mode.

| EC50 [pM] | Structure (SMILES) |
| --- | --- |
| 2000 | CC[C@H](C)[C@H](NC(=O)[C@@H]1CCCN1C(=O)CNC(=O)[C@H](Cc1ccccc1)NC(=O)[C@H](CC(N)=O)NC(=O)[C@H](CC(N)=O)NC(=O)[C@H](CO)NC(=O)[C@H](CO)NC(=O)[C@H](Cc1c[nH]cn1)NC(=O)[C@@H]1CCCN1C(=O)[C@H](CC(C)C)NC(=O)[C@H](Cc1ccccc1)NC(=O)[C@H](CC(N)=O)NC(=O)[C@H](C)NC(=O)[C@H](CC(C)C)NC(=O)[C@H](CCCNC(=N)N)NC(=O)[C@H](CCC(N)=O)NC(=O)[C@@H](NC(=O)[C@H](C)NC(=O)[C@@H]1CSSC[C@H](NC(=O)[C@H](CCCCN)NC(=O)[C@H](CCCNC(=N)N)NC(=O)CC[C@H](NC(=O)CCCCCCCCCCCCCCCCCCC(=O)O)C(=O)O)C(=O)N[C@@H](CC(N)=O)C(=O)N[C@@H]([C@@H](C)O)C(=O)N[C@@H](C)C(=O)N[C@@H]([C@@H](C)O)C(=O)N1)[C@@H](C)O)C(=O)N[C@@H](CC(C)C)C(=O)N1CCC[C@H]1C(=O)N1CCC[C@H]1C(=O)N[C@H](C(=O)N[C@@H](CC(N)=O)C(=O)N[C@H](C(=O)NCC(=O)N[C@@H](CO)C(=O)N[C@@H](CC(N)=O)C(=O)N[C@H](C(=O)N[C@@H](Cc1ccc(O)cc1)C(N)=O)[C@@H](C)O)C(C)C)[C@@H](C)O [Example 21, N-alpha-[(S)-4-Carboxy-4-(19-carboxynonadecanoylamino)butyryl]-Arg-[Pro17]-pramlintide] ({C20 diacid-γGlu}-RKCNTATCATQRLANFLPHSSNNFGPILPPTNVGSNTY-NH2; disulfide 3-8) |
| 100 | CC[C@H](C)[C@H](NC(=O)[C@@H]1CCCN1C(=O)CNC(=O)[C@H](Cc1ccccc1)NC(=O)[C@H](CC(N)=O)NC(=O)[C@H](CC(N)=O)NC(=O)[C@H](CO)NC(=O)[C@H](CO)NC(=O)[C@H](Cc1c[nH]cn1)NC(=O)[C@H](CCCNC(=N)N)NC(=O)[C@H](CC(C)C)NC(=O)[C@H](Cc1ccccc1)NC(=O)[C@H](CC(N)=O)NC(=O)[C@H](C)NC(=O)[C@H](CC(C)C)NC(=O)[C@H](CCCNC(=N)N)NC(=O)[C@H](CCC(N)=O)NC(=O)[C@@H](NC(=O)[C@H](C)NC(=O)[C@@H]1CSSC[C@H](NC(=O)[C@H](Cc2c[nH]cn2)NC(=O)CC[C@H](NC(=O)CCCCCCCCCCCCCCCCCCC(=O)O)C(=O)O)C(=O)N[C@@H](CC(N)=O)C(=O)N[C@@H]([C@@H](C)O)C(=O)N[C@@H](C)C(=O)N[C@@H]([C@@H](C)O)C(=O)N1)[C@@H](C)O)C(=O)N[C@@H](CC(C)C)C(=O)N1CCC[C@H]1C(=O)N1CCC[C@H]1C(=O)N[C@H](C(=O)N[C@@H](CC(N)=O)C(=O)N[C@H](C(=O)NCC(=O)N[C@@H](CO)C(=O)N[C@@H](CC(N)=O)C(=O)N[C@H](C(=O)N[C@@H](Cc1ccc(O)cc1)C(N)=O)[C@@H](C)O)C(C)C)[C@@H](C)O [Example 36, N-alpha-[(S)-4-Carboxy-4-(19-carboxynonadecanoylamino)butyryl]-[His1,Arg17]-pramlintide] ({C20 diacid-γGlu}-HCNTATCATQRLANFLRHSSNNFGPILPPTNVGSNTY-NH2; disulfide 2-7) |
| 50 | CC[C@H](C)[C@H](NC(=O)[C@@H]1CCCN1C(=O)CNC(=O)[C@H](Cc1ccccc1)NC(=O)[C@H](CC(N)=O)NC(=O)[C@H](CC(N)=O)NC(=O)[C@H](CO)NC(=O)[C@H](CO)NC(=O)[C@H](Cc1c[nH]cn1)NC(=O)[C@H](CCCNC(=N)N)NC(=O)[C@H](CC(C)C)NC(=O)[C@H](Cc1ccccc1)NC(=O)[C@H](CC(N)=O)NC(=O)[C@H](C)NC(=O)[C@H](CC(C)C)NC(=O)[C@H](CCCNC(=N)N)NC(=O)[C@H](CCC(N)=O)NC(=O)[C@@H](NC(=O)[C@H](C)NC(=O)[C@@H]1CSSC[C@H](NC(=O)[C@H](CCCCN)NC(=O)[C@H](CCCNC(=N)N)NC(=O)CC[C@H](NC(=O)CCCCCCCCCCCCCCCCC(=O)O)C(=O)O)C(=O)N[C@@H](CC(N)=O)C(=O)N[C@@H]([C@@H](C)O)C(=O)N[C@@H](C)C(=O)N[C@@H]([C@@H](C)O)C(=O)N1)[C@@H](C)O)C(=O)N[C@@H](CC(C)C)C(=O)N1CCC[C@H]1C(=O)N1CCC[C@H]1C(=O)N[C@H](C(=O)N[C@@H](CC(N)=O)C(=O)N[C@H](C(=O)NCC(=O)N[C@@H](CO)C(=O)N[C@@H](CC(N)=O)C(=O)N[C@H](C(=O)N[C@@H](Cc1ccc(O)cc1)C(N)=O)[C@@H](C)O)C(C)C)[C@@H](C)O [Example 26, N-alpha-[(S)-4-Carboxy-4-(17-carboxyheptadecanoylamino)butyryl]-Arg-[Arg17]-pramlintide] ({C18 diacid-γGlu}-RKCNTATCATQRLANFLRHSSNNFGPILPPTNVGSNTY-NH2; disulfide 3-8) |
| 100 | CC[C@H](C)[C@H](NC(=O)[C@@H]1CCCN1C(=O)CNC(=O)[C@H](Cc1ccccc1)NC(=O)[C@H](CC(N)=O)NC(=O)[C@H](CC(N)=O)NC(=O)[C@H](CO)NC(=O)[C@H](CO)NC(=O)[C@H](Cc1c[nH]cn1)NC(=O)[C@H](CO)NC(=O)[C@H](CC(C)C)NC(=O)[C@H](Cc1ccccc1)NC(=O)[C@H](CC(N)=O)NC(=O)[C@H](C)NC(=O)[C@H](CC(C)C)NC(=O)[C@H](CCCNC(=N)N)NC(=O)[C@H](CCC(N)=O)NC(=O)[C@@H](NC(=O)[C@H](C)NC(=O)[C@@H]1CSSC[C@H](NC(=O)CC[C@H](NC(=O)CCCCCCCCCCCCCCCCCCC(=O)O)C(=O)O)C(=O)N[C@@H](CC(N)=O)C(=O)N[C@@H]([C@@H](C)O)C(=O)N[C@@H](C)C(=O)N[C@@H]([C@@H](C)O)C(=O)N1)[C@@H](C)O)C(=O)N[C@@H](CC(C)C)C(=O)N1CCC[C@H]1C(=O)N1CCC[C@H]1C(=O)N[C@H](C(=O)N[C@@H](CC(N)=O)C(=O)N[C@H](C(=O)NCC(=O)N[C@@H](CO)C(=O)N[C@@H](CC(N)=O)C(=O)N[C@H](C(=O)N[C@@H](Cc1ccc(O)cc1)C(N)=O)[C@@H](C)O)C(C)C)[C@@H](C)O [Example 11, N-alpha-[(S)-4-Carboxy-4-(19-carboxynonadecanoylamino)butyryl]-[Ser17]-pramlintide (2-37)] ({C20 diacid-γGlu}-CNTATCATQRLANFLSHSSNNFGPILPPTNVGSNTY-NH2; disulfide 1-6) |
| 900 | CC[C@H](C)[C@H](NC(=O)[C@@H]1CCCN1C(=O)CNC(=O)[C@H](Cc1ccccc1)NC(=O)[C@H](CC(N)=O)NC(=O)[C@H](CC(=O)O)NC(=O)[C@H](CO)NC(=O)[C@H](CO)NC(=O)[C@H](Cc1c[nH]cn1)NC(=O)[C@H](Cc1c[nH]cn1)NC(=O)[C@H](CC(C)C)NC(=O)[C@H](Cc1ccccc1)NC(=O)[C@H](CC(N)=O)NC(=O)[C@H](C)NC(=O)[C@H](CC(C)C)NC(=O)[C@H](CCCNC(=N)N)NC(=O)[C@H](CCC(N)=O)NC(=O)[C@@H](NC(=O)[C@H](C)NC(=O)[C@@H]1CSSC[C@H](NC(=O)[C@@H](N)CCCCN)C(=O)N[C@@H](CCCCNC(=O)[C@H](CCC(=O)O)NC(=O)[C@H](CCCNC(=N)N)NC(=O)[C@H](CCC(=O)O)NC(=O)[C@H](CCC(=O)O)NC(=O)CCCCCCCCCCCCCCCCCCC(=O)O)C(=O)N[C@@H]([C@@H](C)O)C(=O)N[C@@H](C)C(=O)N[C@@H]([C@@H](C)O)C(=O)N1)[C@@H](C)O)C(=O)N[C@@H](CC(C)C)C(=O)N1CCC[C@H]1C(=O)N1CCC[C@H]1C(=O)N[C@H](C(=O)N[C@@H](CC(N)=O)C(=O)N[C@H](C(=O)NCC(=O)N[C@@H](CO)C(=O)N[C@@H](CC(N)=O)C(=O)N[C@H](C(=O)N[C@@H](Cc1ccc(O)cc1)C(N)=O)[C@@H](C)O)C(C)C)[C@@H](C)O [Example 2, N-epsilon3-(19-carboxynonadecanoyl-Glu-Glu-Arg-Glu)-[Lys3,His17,Asp21]-pramlintide] (H-KCK([Glu-Arg-Glu-Glu-C20 diacid])TATCATQRLANFLHHSSDNFGPILPPTNVGSNTY-NH2; disulfide 2-7) |

From US8895504B2, “Amylin derivatives” (priority 2008, dated 2014)
